From US9340577B2, “HLA binding motifs and peptides and their uses” (priority 1992, dated 2016) come the findings set out here.

Assay in all cases: biochemical
One assay addresses DR4w4 (DRB1*0401) (Homo sapiens, UniProt P01903+P01911, A100K/A169T/F76Y/I96L/K127E/L162R/M171V/N62H/P40V/Q125Y/R42H/S133A/S149N/S66Y/V115G/V209L/W38E). The class given is binding.
For a further assay, the target named is DR7 (DRB1*0701) (Homo sapiens, UniProt P01903+P01911, A100R/A102G/A103Q/D57E/D86V/E43K/F76Y/K127E/L162R/M171V/P40G/Q125H/Q99D/R33Q/R42Y/R54Q/S133A/S66F/T210M/V115G/Y107V/Y59L/Y89S). The class given is binding.
Another assay deals with DRB1*0405 (Homo sapiens, UniProt P01903+P01911, A100R/A169T/D86S/F76Y/I96L/K127E/L162R/M171V/N62H/P40V/Q125Y/R42H/S133A/S149N/S66Y/V115G/V209L/W38E). The class given is binding.
Another assay concerns the target DRB1*0802 (Homo sapiens, UniProt P01903+P01911, A100R/A103L/A169T/F76Y/H45Y/I96F/K41T/L162R/M171V/P40S/Q125H/Q178H/Q39Y/Q99D/R218S/R42G/S66Y/V115G/W38E). The class given is binding.
For a further assay, the target named is DRB1*0901 (Homo sapiens, UniProt P01903+P01911, A100R/A103E/D57H/D86V/F55Y/F60I/F76Y/I96F/K127E/L162R/M171V/P40D/Q125H/Q99R/R33Q/R42F/S133A/S66N/T210M/V115G/W38K/Y107V/Y59G/Y89S). The class given is binding.
The next assay concerns the target DRB1*1302 (Homo sapiens, UniProt P01903+P01911, A100E/A169T/K41T/L162R/M171V/P40S/Q125H/Q178H/Q39Y/Q99D/R42S/S66N/T262R/V115G/W38E/Y61H). The class given is binding.
The target of the next assay is DRB1*1501 (Homo sapiens, UniProt P01903+P01911). The class given is binding.
The next assay addresses DRB4*0101 (Homo sapiens, UniProt P01903+P13762, G164S). The class given is binding.
In another assay the target is DRB5*0101 (Homo sapiens, UniProt P01903+Q30154).
A further assay concerns the target DR1 (DRB1*0101) (Homo sapiens, UniProt P01903+P01911, A100R/D57E/F55L/F60I/F76Y/I96L/L162R/M171V/P40L/Q125E/R42F/V115G/Y59C). In kind it is binding.
For a further assay, the target named is DRB1*1101 (Homo sapiens, UniProt P01903+P01911, A100R/A169T/A87E/I96F/K41T/L162R/M171V/P40S/Q125H/Q178H/Q39Y/Q99D/R42S/S66Y/T262R/V115G/W38E).

What is called IC50 is the concentration at which inhibition is half-maximal. Read a low IC50 as greater potency in that assay.

Where two headings read alike, the source gives them in different places. No end group written: not given here. Where only a bound is given, the exact number is not on record here.

Sequence of DRB1*1302 (P01903 26-254 limits assumed, other chains not shown): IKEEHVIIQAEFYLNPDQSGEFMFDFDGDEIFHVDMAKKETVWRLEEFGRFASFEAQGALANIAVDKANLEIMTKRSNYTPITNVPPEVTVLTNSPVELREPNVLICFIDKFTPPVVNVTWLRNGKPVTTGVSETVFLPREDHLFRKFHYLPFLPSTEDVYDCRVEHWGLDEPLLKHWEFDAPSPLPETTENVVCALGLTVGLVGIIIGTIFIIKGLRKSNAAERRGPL
Sequence of DRB1*1101 (P01903 26-254 limits assumed, other chains not shown): as above

For LKEFLKGTPKKNCIL [Peptide 89.0086], the 50% inhibitory concentration (IC50) turned out to be 1.62 µM at DR4w4 (DRB1*0401); 5.43 µM on DR7 (DRB1*0701); 14.9 µM at DRB1*0405; 3.2 µM against DRB1*0802; 11.9 µM against DRB1*0901; 6.61 µM on DRB1*1302. Also, the IC50 against DRB1*1501 is 7.81 µM; against DRB4*0101 it was 2.41 µM; on DRB5*0101 (Binding affinity DRB5 *0101), 4.66 µM.

On to LVQLKCPPLLLTSNT [Peptide 89.0077], for which the half-inhibitory concentration (IC50) against DR1 (DRB1*0101) was found to be 0.051 µM; against DR4w4 (DRB1*0401), 4.03 µM; at DR7 (DRB1*0701), 1.09 µM; against DRB1*0405, 3.5 µM; at DRB1*0901 it was 11.7 µM; at DRB1*1302 it was 2 µM. Besides, the 50% inhibitory concentration (IC50) against DRB1*1501 is 0.774 µM; against DRB4*0101, 0.307 µM; at DRB1*1101 (Binding affinity DRB1 *1101), 17.6 µM; at DRB5*0101 (Binding affinity DRB5 *0101), 4.49 µM.

For VKFLRYQQIEFVSFL [Peptide 89.0052], the IC50 against DR4w4 (DRB1*0401) came to 1.28 µM; against DR7 (DRB1*0701) it was 4.59 µM; on DRB1*0405, 2.77 µM; on DRB1*0802 it was 7.05 µM; at DRB1*0901 it was 3.21 µM; on DRB1*1302, 0.024 µM. Also, the IC50 against DRB1*1501 is 0.535 µM; against DRB4*0101 it was 0.002 µM; on DRB1*1101 (Binding affinity DRB1 *1101) it was 1.1 µM; at DRB5*0101 (Binding affinity DRB5 *0101) it was 11.2 µM.

As to DSEIAYKYAQLADSD [Peptide 89.0051], the 50% inhibitory concentration (IC50) against DR4w4 (DRB1*0401) was > 20 µM; on DR7 (DRB1*0701), > 20 µM; on DRB1*0405, 12.2 µM; against DRB1*0802, 0.624 µM; against DRB1*0901, 5.32 µM; on DRB1*1302, > 20 µM. The half-maximal inhibitory concentration (IC50) against DRB1*1501 is 1.09 µM; on DRB4*0101 it was 1.34 µM; on DRB1*1101 (Binding affinity DRB1 *1101), 3.38 µM; at DRB5*0101 (Binding affinity DRB5 *0101) it was > 20 µM.

Consider RDSVDSAPILTAFNS [Peptide 89.0156], for which the IC50 at DR1 (DRB1*0101) is 7.45 µM; against DR4w4 (DRB1*0401), 0.02 µM; on DR7 (DRB1*0701), 0.335 µM; at DRB1*0405, > 20 µM; on DRB1*0802, > 20 µM; against DRB1*1302, 0.025 µM. For the same sequence, the IC50 against DRB1*1501 was 4.84 µM; against DRB4*0101, 1.31 µM; on DRB1*1101 (Binding affinity DRB1 *1101), 7.05 µM; on DRB5*0101 (Binding affinity DRB5 *0101), > 20 µM.

Turning to SRVIVCPTSIPSDQI [Peptide 90.0027], the half-inhibitory concentration (IC50) against DR1 (DRB1*0101) was > 20 µM; against DR4w4 (DRB1*0401), 1.91 µM; at DR7 (DRB1*0701) it was > 20 µM; at DRB1*0405, 6.14 µM; against DRB1*0901 it was > 20 µM; at DRB1*1302 it was 2 µM. Also, the IC50 against DRB1*1501, on DRB4*0101, on DRB1*1101 (Binding affinity DRB1 *1101) and on DRB5*0101 (Binding affinity DRB5 *0101) was > 20 µM in each case.

Turning to YFKLFLQGTPKHNCL [Peptide 89.0133], the 50% inhibitory concentration (IC50) was > 20 µM at DR1 (DRB1*0101); 0.109 µM against DR4w4 (DRB1*0401); > 20 µM at DR7 (DRB1*0701); 6.12 µM at DRB1*0405; > 20 µM on DRB1*0802; > 20 µM against DRB1*0901. Moreover, the IC50 is 0.193 µM at DRB1*1302, > 20 µM against DRB1*1501, 0.081 µM against DRB4*0101 and > 20 µM on DRB5*0101 (Binding affinity DRB5 *0101).

For the sequence ESDMAFQYAQLADCN [Peptide 89.0085], the IC50 at DR1 (DRB1*0101) came to 0.011 µM; against DR4w4 (DRB1*0401), 0.233 µM; on DR7 (DRB1*0701), 3.25 µM; on DRB1*0405, 19.7 µM; at DRB1*0802, 5.92 µM; against DRB1*1302 it was 0.224 µM. Moreover, the half-inhibitory concentration (IC50) on DRB1*1501 amounted to 7.42 µM; at DRB4*0101, 0.048 µM; on DRB1*1101 (Binding affinity DRB1 *1101), 20 µM; on DRB5*0101 (Binding affinity DRB5 *0101), 7.69 µM.

Regarding TYGVSFMELVRPFKS [Peptide 89.0095], the half-maximal inhibitory concentration (IC50) was > 20 µM at DR4w4 (DRB1*0401); 7.57 µM against DR7 (DRB1*0701); > 20 µM on DRB1*0405; > 20 µM against DRB1*0802; > 20 µM against DRB1*0901; 0.598 µM on DRB1*1302. Also, the concentration for half-maximal inhibition (IC50) at DRB1*1501 was 0.592 µM; at DRB4*0101 it was 0.389 µM; on DRB5*0101 (Binding affinity DRB5 *0101), 9.07 µM.

Turning to KNCILIHGAPNTGKS [Peptide 89.0055], the IC50 against DR4w4 (DRB1*0401) was > 20 µM; against DR7 (DRB1*0701) it was 7.3 µM; on DRB1*0405, 3.85 µM; at DRB1*0802 it was > 20 µM; against DRB1*0901, 17 µM; at DRB1*1302, 8.91 µM. The IC50 was 1.4 µM on DRB1*1501, 0.577 µM on DRB4*0101, 19.9 µM at DRB1*1101 (Binding affinity DRB1 *1101) and > 20 µM at DRB5*0101 (Binding affinity DRB5 *0101).

On to QAELETAQALFHAQE [Peptide 89.0022], for which the half-maximal inhibitory concentration (IC50) was 0.122 µM on DR4w4 (DRB1*0401); 3.01 µM against DR7 (DRB1*0701); 0.592 µM against DRB1*0405; > 20 µM against DRB1*0802; 0.338 µM on DRB1*0901; 2.78 µM against DRB1*1302. Besides, the IC50 at DRB1*1501 is > 20 µM; at DRB4*0101 it was 0.072 µM; on DRB1*1101 (Binding affinity DRB1 *1101), > 20 µM; on DRB5*0101 (Binding affinity DRB5 *0101), 1.95 µM.

As to HALFTAQEAKQHRDA [Peptide 89.0001], the half-inhibitory concentration (IC50) at DR4w4 (DRB1*0401) is 0.205 µM; against DR7 (DRB1*0701), > 20 µM; against DRB1*0405 it was 4.75 µM; on DRB1*0901 it was > 20 µM; at DRB1*1302, > 20 µM; against DRB1*1501, > 20 µM. Further, the 50% inhibitory concentration (IC50) against DRB4*0101 was > 20 µM; on DRB1*1101 (Binding affinity DRB1 *1101), > 20 µM; at DRB5*0101 (Binding affinity DRB5 *0101), 7.16 µM.

FQVIELQMALETLSK [Peptide 89.0182]: the half-inhibitory concentration (IC50) against DR1 (DRB1*0101) is 1.01 µM; at DR4w4 (DRB1*0401), 0.224 µM; on DR7 (DRB1*0701), 0.183 µM; against DRB1*0405, 0.232 µM; at DRB1*0802, > 20 µM; at DRB1*0901, 0.751 µM. Moreover, the IC50 on DRB1*1302 was > 20 µM; on DRB1*1501 it was 14 µM; at DRB4*0101, > 20 µM; on DRB1*1101 (Binding affinity DRB1 *1101), 2.11 µM.

Consider RKTIAKALSSILNVP [Peptide 89.0123], for which the half-maximal inhibitory concentration (IC50) was > 20 µM on DR1 (DRB1*0101); 11.5 µM at DR4w4 (DRB1*0401); > 20 µM against DR7 (DRB1*0701); > 20 µM against DRB1*0405; > 20 µM at DRB1*0802; > 20 µM at DRB1*0901. For the same sequence, the IC50 is > 20 µM against DRB1*1302, > 20 µM at DRB1*1501, 0.746 µM against DRB4*0101 and > 20 µM against DRB1*1101.

For the sequence QEQMLIQPPKIRSPA [Peptide 89.0124], the IC50 at DR1 (DRB1*0101) is > 20 µM; at DR4w4 (DRB1*0401), 0.991 µM; against DR7 (DRB1*0701), 7.22 µM; against DRB1*0405, 8.05 µM; on DRB1*0802, > 20 µM; on DRB1*1302, > 20 µM. Further, the IC50 was > 20 µM against DRB1*1501 and 1.64 µM against DRB4*0101.

Take LIQLKCPPILLTTNI [Peptide 89.0038]: the IC50 against DR1 (DRB1*0101) is 0.015 µM; on DR4w4 (DRB1*0401) it was 3.8 µM; on DR7 (DRB1*0701), 0.99 µM; against DRB1*0405, 3.95 µM; against DRB1*0901, > 20 µM; on DRB1*1302, > 20 µM. The IC50 against DRB1*1501 is 6.8 µM; on DRB4*0101, 0.158 µM; at DRB1*1101 (Binding affinity DRB1 *1101), > 20 µM; at DRB5*0101 (Binding affinity DRB5 *0101), > 20 µM.

As to QQLLQVQTAHADKQT [Peptide 89.0115], the half-inhibitory concentration (IC50) at DR1 (DRB1*0101) was 1.11 µM; against DR4w4 (DRB1*0401), 5.5 µM; against DR7 (DRB1*0701) it was > 20 µM; on DRB1*0405, > 20 µM; against DRB1*0802, > 20 µM; on DRB1*0901, > 20 µM. Besides, the IC50 on DRB1*1302 is > 20 µM; on DRB1*1501 it was 10.5 µM; against DRB4*0101, 0.932 µM; against DRB5*0101, 0.086 µM.
